We go through two compounds from patent EP4364726A1, “METHOD FOR TREATING A CANCER AND/OR CANCER METASTASIS” (Nano Targeting & Therapy Biopharma Inc., priority 2022, dated 2024).

Data set [1] has as its system chicken embryo chorioallantoic membrane (CAM) tumor model. In words: Chorioallantoic membrane (CAM) analysis for angiogenesis. In kind it is in vivo. Conditions: administered on day 12, observed days 14 and 16. The protocol: To evaluate the effect of MSNs on tumor angiogenesis, chicken embryo chorioallantoic membrane (CAM) tumor model was used. The fertilized eggs were incubated in the incubator for 10 days, then a small window was opened in the eggshell and the cancer cells were implanted on the CAM membrane near the aorta. MSN or Doxorubicin (DOX) was administered on day 12 when the tumor was formed and the angiogenesis near the tumor was observed on days 14 and 16.

Data set [2] has as its system luciferase-expressing HCT-116 cells. In words: Orthotopic colorectal cancer metastasis model (cells injected into cecum wall). Conditions: orthotopic HCT-116-luc, 40 mg/kg twice per week, 8 administrations. In kind it is in vivo, mice.
Method: 2×10^6 luciferase-expressing HCT-116 cells were directly injected into the wall of the cecum with surgery to establish the orthotopic colorectal cancer metastasis model, this model spontaneously produces highly metastatic tumors in adjacent intestinal tissues, peritoneum, and distance metastasis (spleen, kidney, liver, and diaphragm). Tumor-bearing mice received IRI and IRI@NTT2_186k at dose levels of 40 mg/kg twice per week for a total of 8 administrations. The tumor growth and metastasis were observed by the IVIS system once a week and body weight was observed over the study period. To assess overall survival, animals were monitored up to the point of spontaneous death or approaching moribund status.
For data set [3] the following is noted: cited from earlier work.

For `COc1cccc2c1C(=O)c1c(O)c3c(c(O)c1C2=O)C[C@@](O)(C(=O)CO)C[C@@H]3O[C@H]1C[C@H](N)[C@H](O)[C@H](C)O1` [DOX, Doxorubicin], in data set [1], the “blood vessels near the tumor” value is “blood vessels exhibited disintegration and decreased density”.
`CCc1c2c(nc3ccc(OC(=O)N4CCC(N5CCCCC5)CC4)cc13)-c1cc3c(c(=O)n1C2)COC(=O)[C@]3(O)CC` [IRI, irinotecan]: in data set [2], the “tumor course once treatment was discontinued” value is “tumor relapse and tumor metastases were observed”; the tumor growth rate entry is reported as “slower tumor growth rate compared to the control group”. Moreover, in data set [2] (IVIS), the “inhibition of primary tumor growth and metastases” value was “inefficient inhibition of tumor growth and metastases”. In addition, the pka result in data set [3] is “about 10.9”.
